From patent US4418065A, “Halophenyl-pyridyl-allylamine derivatives and use” (priority 1979, dated 1983) come the findings set out here.

Assay [1] relates to neuronal uptake of 5-hydroxytryptamine. In words: Inhibition of the uptake of ^14 C-5-HT in vivo (i.p. administration, hypothalamus slices). More on the design: species or system mouse. Particulars: for ED50: Mus musculus, ip, 0.5 h, read-out: Uptake of ^14 C-5-HT in vivo ED50; for Percentage inhibition of ^14 C-5-HT uptake at the highest dose examined: in vivo, at the highest dose examined (the > value, μmole/kg). The protocol:
(§1) The test substances were administered intraperitoneally half an hour before the animals were killed. […] The incubation time was 5 minutes with 5 minutes of preincubation before the labelled amines were added. The slices were dissolved in Soluene® and the amounts of radioactive amines taken up were determined by liquid scintillation. […] Active uptake is defined as that part of the radioactive uptake which is inhibited by a high concentration of cocaine.

Assay [2] relates to neuronal uptake of noradrenaline. Description: Inhibition of the uptake of ^3 H-NA in vivo (i.p. administration, hypothalamus slices). More on the design: species or system mouse. The settings on record: for ED50: Mus musculus, ip, 0.5 h, read-out: Uptake of ^3 H-NA in vivo ED50; for Percentage inhibition of ^3 H-NA uptake at the highest dose examined: in vivo, at the highest dose examined (the > value, μmole/kg). The method, then: as §1

Assay [3] has as its system neuronal uptake of 5-hydroxytryptamine. Description: Inhibition of the uptake of ^14 C-5-HT in vitro (slices of mouse midbrain). The class given is biochemical. The settings on record: for EC50: in vitro, mouse brain slices, 1×10^-7 M ^14 C-5-HT, 5 min. The protocol:
as §1
(§2) In the in vitro method slices of mouse midbrain were preincubated for 5 minutes with solution of the compound to be tested and then incubated as described above.

Assay [4] deals with neuronal uptake of noradrenaline. Description: Inhibition of the uptake of ^3 H-NA in vitro (slices of mouse midbrain). Particulars: for EC50: mouse brain slices, 1×10^-7 M ^3 H-NA, 5 min. The class given is biochemical. The protocol: as §1, §2
Where [5] appears, read: i.p., half an hour before the animals were killed, 50 percent decrease of active uptake.

Counter-ions that a name gives are not always drawn. Like-named read-outs stand apart in the source and are kept apart here. Some results are limits rather than exact numbers.

For the compound `CNC/C=C(\c1ccc(Br)cc1)c1cccnc1` [4-Br H E, reference compound], the ED50 in assay [1] (setting [5]) turned out to be 102 µmol/kg; in assay [2] (setting [5]), 25 µmol/kg.

In the case of `CNCC=C(c1ccc(F)cc1)c1cccnc1` [Example 5, 3-(4-Fluorophenyl)-N-methyl-3-(3-pyridyl)allylamine oxalate], the ED50 in assay [1] (setting [5]) amounted to 72 µmol/kg; in assay [2] (setting [5]), 29 µmol/kg.

Regarding `CN(C)C/C=C(/c1ccc(I)cc1)c1cccnc1.O=C(O)C(=O)O` [Example 11, (Z)-3-(4-iodophenyl)-N,N-dimethyl-3-(3-pyridyl)allylamine oxalate], the “selectivity of the uptake inhibition (5-HT versus NA), in words” value in assay [3] (5-HT versus NA uptake, brain slices) was “completely selective inhibitor of the 5-HT uptake”. Further, the EC50 is 1300 nM in assay [3] and > 22000 nM in assay [4]. For the same compound, the results for the ED50 in assay [1] (setting [5]) and in assay [2] (setting [5]) were 46 µmol/kg and > 88 µmol/kg, respectively. Further, the “Percentage inhibition of ^3 H-NA uptake at the highest concentration examined” value in assay [4] (at the highest concentration examined (the > value, μM)) is on record as 33%. Besides, in assay [2] (i.p.), the “Percentage inhibition of ^3 H-NA uptake at the highest dose examined” value worked out at 0%.

Consider `CNC/C=C(\c1cccnc1)c1ccccc1Br` [Example 7, (E)-3-(2-Bromophenyl)-N-methyl-3-(3-pyridyl)allylamine oxalate], for which the figures for the EC50 in assay [3] and in assay [4] were 600 nM and 300 nM, respectively. Also, the ED50 came out at 102 µmol/kg in assay [1] (setting [5]) and 20 µmol/kg in assay [2] (setting [5]).

On to `CN(C)C/C=C(\c1cccnc1)c1ccccc1Br` [Example 6, (E)-3-(2-Bromophenyl)-N,N-dimethyl-3-(3-pyridyl)allylamine oxalate], for which the EC50 turned out to be 4200 nM in assay [3] and 2200 nM in assay [4]. Further, the values for the ED50 in assay [1] (setting [5]) and in assay [2] (setting [5]) were > 98 µmol/kg and 37 µmol/kg, respectively.

Regarding `CN(C)C/C=C(\c1cccnc1)c1ccc(Cl)cc1Cl` [Example 9, (E)-3-(2,4-Dichlorophenyl)-N,N-dimethyl-3-(3-pyridyl)allylamine oxalate], the ED50 in assay [1] (setting [5]) was 43 µmol/kg; in assay [2] (setting [5]) it was > 101 µmol/kg.

As to `CN(C)C/C=C(\c1cccnc1)c1cccc(Cl)c1.O=C(O)C(=O)O` [Example 1, (Z)-3-(3-chlorophenyl)-N,N-dimethyl-3-(3-pyridyl)allylamine oxalate], the EC50 in assay [3] came to 2700 nM; in assay [4] it was 10000 nM. Moreover, the ED50 in assay [1] (setting [5]) and in assay [2] (setting [5]) was > 110 µmol/kg in each case. Also, the “Percentage inhibition of ^14 C-5-HT uptake at the highest dose examined” value in assay [1] (i.p.) was found to be 12%. The “Percentage inhibition of ^3 H-NA uptake at the highest dose examined” value in assay [2] (i.p.) worked out at 41%.

Turning to `CNC/C=C(\c1cccnc1)c1ccc(Cl)cc1Cl` [Example 10, (E)-3-(2,4-Dichlorophenyl)-N-methyl-3-(3-pyridyl)allylamine oxalate], the EC50 in assay [3] is 500 nM; in assay [4], 2300 nM. In addition, the ED50 in assay [1] (setting [5]) was determined as 18 µmol/kg; in assay [2] (setting [5]), 73 µmol/kg.

Consider `CN(C)CCCN1c2ccccc2CCc2ccccc21` [Imipramine, reference compound], for which the ED50 in assay [1] came to 125 µmol/kg; in assay [2], 63 µmol/kg.

On to `CN(C)C/C=C(/c1ccc(Br)cc1)c1cccnc1` [4-Br CH3 Z, (Z)-3-(4-bromophenyl)-N,N-dimethyl-3-(3-pyridyl)allylamine, reference compound], for which the ED50 in assay [1] (setting [5]) was 49 µmol/kg; in assay [2] (setting [5]), > 98 µmol/kg. Further, the “Percentage inhibition of ^3 H-NA uptake at the highest dose examined” value in assay [2] (i.p.) came to 26%.

Regarding `CN(C)CC=C(c1cccnc1)c1ccccc1Br` [2-Br CH3 E/Z 1:1, 3-(2-bromophenyl)-N,N-dimethyl-3-(3-pyridyl)-allylamine], the results for the EC50 in assay [3] and in assay [4] were 3500 nM and 2200 nM, respectively. The ED50 in assay [1] (setting [5]) was > 126 µmol/kg; in assay [2] (setting [5]), 79 µmol/kg.

As for `CN(C)CC=C(c1ccc(F)cc1)c1cccnc1` [Example 4, 3-(4-Fluorophenyl)-N,N-dimethyl-3-(3-pyridyl)allylamine oxalate], the figures for the ED50 in assay [1] (setting [5]) and in assay [2] (setting [5]) were 115 µmol/kg and 72 µmol/kg, respectively.

With `CN(C)CC=C(c1cccnc1)c1ccc(Cl)cc1Cl` [2,4-di Cl CH3 E/Z 1:1, 3-(2,4-dichlorophenyl)-N,N-dimethyl-3-(3-pyridyl)-allylamine], the ED50 in assay [1] (setting [5]) was determined as 42 µmol/kg; in assay [2] it was 63 µmol/kg.

As to `CNC/C=C(\c1cccnc1)c1cccc(Br)c1` [Example 8, (Z)-3-(3-Bromophenyl)-N-methyl-3-(3-pyridyl)allylamine oxalate], the EC50 was determined as 1400 nM in assay [3] and 900 nM in assay [4]. Further, the ED50 in assay [1] (setting [5]) was > 102 µmol/kg; in assay [2] (setting [5]) it was 58 µmol/kg.

As for `CNC/C=C(/c1ccc(Cl)cc1)c1cccnc1.O=C(O)C(=O)O` [Example 3, (Z)-3-(4-Chlorophenyl)-N-methyl-3-(3-pyridyl)allylamine oxalate], the ED50 in assay [1] (setting [5]) was 19 µmol/kg; in assay [2] (setting [5]), 23 µmol/kg.

In the case of `CNCC=C(c1cccnc1)c1ccccc1Br` [2-Br H E/Z 1:1, 3-(2-bromophenyl)-N-methyl-3-(3-pyridyl)-allylamine], the EC50 in assay [3] amounted to 1500 nM; in assay [4], 1400 nM. The ED50 in assay [1] (setting [5]) was > 132 µmol/kg; in assay [2], 63 µmol/kg.

Turning to `CN(C)C/C=C(\c1ccc(Br)cc1)c1cccnc1` [4-Br CH3 E, reference compound], the figures for the ED50 in assay [1] (setting [5]) and in assay [2] (setting [5]) were > 98 µmol/kg and 25 µmol/kg, respectively. Further, the “Percentage inhibition of ^14 C-5-HT uptake at the highest dose examined” value in assay [1] (i.p.) is 36%.

For the compound `CN(C)C/C=C(/c1ccc(Cl)cc1)c1cccnc1` [Example 2, (Z)-3-(4-chlorophenyl)-N,N-dimethyl-3-(3-pyridyl)allylamine oxalate], the EC50 in assay [3] and in assay [4] was 1100 nM throughout. For the same compound, the ED50 in assay [1] (setting [5]) is 34 µmol/kg; in assay [2] (setting [5]), 46 µmol/kg.

On to `CNC/C=C(/c1ccc(Br)cc1)c1cccnc1` [4-Br H Z, reference compound], for which the ED50 in assay [1] (setting [5]) is 15 µmol/kg; in assay [2] (setting [5]) it was > 101 µmol/kg. Moreover, the “Percentage inhibition of ^3 H-NA uptake at the highest dose examined” value in assay [2] (i.p.) was determined as 38%.

On to `CN(C)C/C=C(\c1cccnc1)c1cccc(Br)c1` [Example 12, 3-(3-Bromophenyl)-N,N-dimethyl-3-(3-pyridyl)allylamine oxalate], for which the ED50 in assay [1] (setting [5]) was > 98 µmol/kg; in assay [2] (setting [5]) it was 66 µmol/kg.

Take `CNCC=C(c1cccnc1)c1ccc(Cl)cc1Cl` [2,4-di Cl H E/Z 1:1, 3-(2,4-dichlorophenyl)-N-methyl-3-(3-pyridyl)-allylamine]: the values for the EC50 in assay [3] and in assay [4] were 500 nM and 900 nM, respectively. Further, the ED50 was 60 µmol/kg in assay [1] (setting [5]) and 82 µmol/kg in assay [2] (setting [5]).

The term ED50 denotes the midpoint of the dose-response relation. As usually defined, the EC50 is the concentration needed to bring the measured effect to its halfway point. A higher EC50 goes with weaker potency.
